Source: patent US9808439B2 (Macau University of Science and Technology, priority 2015, dated 2017)
“Also recorded” adds a separate entry of the source. Read-outs that look alike come from different tables or passages of the source.

Columns and labels:
A2780/T cells [1] = experiment: Cell cycle analysis by flow cytometry in A2780/T; assay type: cell-based, human; settings: for G1 phase cells / G2 phase cells: 48 h
Experimental: (§1) A2780/T cells were harvested after 24-hours, 48-hour, or 72-hour treatment and washed twice with ice-cold PBS. The cells were fixed and permeabilized with 70% ice-cold ethanol overnight at 4° C. or −20° C. for 2 h. After one additional wash in PBS, cells were stained with a staining solution containing PI ([…]) and RNase A (250 μg/ml) for […] at room temperature. They were then pelleted, washed and suspended in PBS to a final concentration of 1×10^6/ml and analyzed by flow cytometry (BD FACS Aria, BD Biosciences, San Jose, Calif.).

A549/T cells = experiment: SRB cell cytotoxicity assay in A549/T; assay type: cell-based, human; settings: for IC50: Homo sapiens, read-out: IC50 ± SD
A2780 cells [2] = experiment: Cell cycle analysis by flow cytometry in A2780; assay type: cell-based, human; settings: A2780, PTX 0.01 μM
Experimental: as §1

p53 = experiment: Western blot of p53 expression; assay type: cell-based, human
Experimental: The total cellular samples were harvested and rinsed twice with ice-cold PBS buffer. Cell extracts were lysed in RIPA buffer (50 mM Tris (pH 7.4), 150 mM NaCl, 1% Triton X-100, 1% sodium deoxycholate, 0.1% SDS, sodium orthovanadate, sodium fluoride and EDTA) containing protease inhibitor cocktails (Roche Life Science, USA). Protein concentration was determined using the BCA protein assay kit. Equal amounts of cell lysates were resolved by SDS-PAGE and subsequently electrophoretically transferred onto PVDF membranes (Millipore, Darmstadt, Germany). After blocking in tris-buffered saline containing 0.1% of Tween20 (TBST) with 5% (w/v) skim milk (Nestle Carnation, New Zealand) for 2 h at room temperature, the membranes were incubated with primary and secondary antibodies and subsequently visualized with an enhanced chemiluminescence detection kit (Thermo Scientific™ SuperSignal™ West Pico Chemiluminescent Substrate, USA). β-Actin was used as the loading control for the experimental data analysis.

A2780/T cells [3] = experiment: SRB cell cytotoxicity assay in A2780/T; settings: for fold reversal / IC50: A2780/T; for IC50: read-out: IC50 ± SD
Experimental: (§3) Sulphorhodamine B (SRB) assays were carried out as previously described to assess cell density, based on sensitive measure of total cellular protein, which performed similarly compared with other proliferation assays such as MTT assay. Briefly, cells were seeded into flat bottomed 96-well plates at an initial density of 7.5×10^3 per well before treatment. […] After removing the medium, cells were fixed in 10% trichloroacetic acid for 1 h at 4° C. and then washed with water five times. 0.4% SRB dissolved in 1% v/v acetic acid was added and incubated 30 mm for staining. The cells were quickly washed with 1% acetic acid and left to dry overnight. The protein bound SRB was solubilized by adding 200 μl 10 mM Tris buffer per well and measured at wavelengths 490 nm using a plate reader (Spectra MAX 250; Molecular Devices, Sunnyvale, Calif.).

A2780/T cells [4] = experiment: Combination index, Chou-Talalay method (CalcuSyn); assay type: cell-based, human; settings: for EC50: Homo sapiens
Experimental: Combination index (CI) was calculated to quantitatively depict synergistic ([…], additive (CI=1), or antagonistic (CI>1) effect. With the use of CalcuSyn software v. 2.1 (Bio-soft), synergy is further refined as synergism (combination index=0.3-0.7), strong synergism (combination index=0.1-0.3), and very strong synergism (combination index<0.1).

A2780/T cells [5] = experiment: Apoptosis by Annexin-V/PI double staining; assay type: cell-based, human; settings: for apoptosis induction, single treatment: 7.53 μM tangeretin or 0.94 μM PTX alone
Experimental: After treatment, 1×10^6 cells were collected, washed and suspended in 100 μl of binding buffer (10 mM N-2-hydroxyethylpiperazine-N,-2-ethanesulfonic acid/NaOH, 140 mM NaCl, 2.5 mM CaCl2, pH 7.4). Apoptotic cells were identified by double supravital staining with 5 μl recombinant FITC (fluorescein isothiocyanate)-conjugated Annexin-V and 5 μl PI (50 μg/ml). The cells were stained for […] at room temperature in the dark, and analyzed by fluorescence-activated cell sorting cater-plus flow cytometry. Data acquisition and analysis were performed in BD FACS Aria with FlowJo software.

[6] = rat, plasma; cited from earlier work
[7] = biological target: T1, recombinant human ABCB1 membranes (Homo sapiens, UniProt P08183); experiment: ABCB1 ATPase activity assay (Pgp-Glo); assay type: biochemical
T1 construct: purchased Promega
T1 sequence (P08183 whole entry): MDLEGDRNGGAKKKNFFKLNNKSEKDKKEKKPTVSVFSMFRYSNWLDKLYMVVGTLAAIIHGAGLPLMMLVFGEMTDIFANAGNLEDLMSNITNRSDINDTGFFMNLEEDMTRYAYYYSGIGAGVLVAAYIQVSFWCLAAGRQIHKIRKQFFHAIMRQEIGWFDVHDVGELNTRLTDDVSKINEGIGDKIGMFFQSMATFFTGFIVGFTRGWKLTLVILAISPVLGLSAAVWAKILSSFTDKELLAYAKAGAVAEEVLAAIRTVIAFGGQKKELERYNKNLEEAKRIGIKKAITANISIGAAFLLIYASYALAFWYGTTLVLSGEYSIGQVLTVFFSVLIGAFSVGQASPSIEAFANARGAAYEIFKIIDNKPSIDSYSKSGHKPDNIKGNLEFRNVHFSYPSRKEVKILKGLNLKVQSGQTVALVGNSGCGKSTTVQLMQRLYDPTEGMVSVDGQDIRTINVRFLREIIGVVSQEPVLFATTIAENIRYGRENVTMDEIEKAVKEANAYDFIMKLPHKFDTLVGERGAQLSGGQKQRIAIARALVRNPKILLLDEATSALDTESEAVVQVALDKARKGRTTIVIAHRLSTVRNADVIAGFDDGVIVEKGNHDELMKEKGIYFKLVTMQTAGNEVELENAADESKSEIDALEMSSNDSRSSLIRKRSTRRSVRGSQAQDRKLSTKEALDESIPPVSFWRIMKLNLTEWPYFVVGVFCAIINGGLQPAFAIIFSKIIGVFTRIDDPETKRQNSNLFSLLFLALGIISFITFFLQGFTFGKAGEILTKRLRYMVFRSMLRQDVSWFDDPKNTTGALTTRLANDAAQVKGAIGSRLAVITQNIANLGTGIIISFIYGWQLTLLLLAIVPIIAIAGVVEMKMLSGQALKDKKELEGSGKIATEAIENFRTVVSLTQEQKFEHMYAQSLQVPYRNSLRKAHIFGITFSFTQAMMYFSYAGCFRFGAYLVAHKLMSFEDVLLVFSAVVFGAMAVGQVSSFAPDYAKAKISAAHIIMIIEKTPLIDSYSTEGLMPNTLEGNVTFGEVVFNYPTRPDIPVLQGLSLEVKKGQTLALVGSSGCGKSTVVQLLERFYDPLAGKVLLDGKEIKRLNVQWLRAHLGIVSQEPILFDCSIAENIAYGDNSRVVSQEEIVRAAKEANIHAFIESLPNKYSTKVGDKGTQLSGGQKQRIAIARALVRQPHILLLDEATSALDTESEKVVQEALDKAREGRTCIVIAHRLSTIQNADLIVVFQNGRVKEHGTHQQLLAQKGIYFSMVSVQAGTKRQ
Experimental: Sodium orthovanadate (Na3VO4) was used as an ABCB1 ATPase inhibitor. […] Luminescence was initiated by ATP detection buffer. The plate (white opaque 96-well, corning, USA) was further incubated at room temperature for […] to develop luminescent signal, and was read with luminometer (infinite M200 PRO,TECAN, Switzerland).

[8] = human, plasma; cited from earlier work
A2780 cells [9] = experiment: Intracellular accumulation of DOX and Flutax-2 in A2780; assay type: cell-based, human; settings: parental A2780, 7.53 μM tangeretin, 8 h
Experimental: (§2) A2780 or A2780/T cells (5×10^6) were cultured on the cover glass (ISO LAB 20×20 mm). […] After treatment, cells were fixed in 4 wt % formaldehyde (Sigma-Aldrich). Nuclear DNA was stained with 1 μg/mL blue-fluorescent DAPI (1 mg/mL in H2O stock solution; Invitrogen D1306). One drop of fluorescent preservation solution (fluorsave reagent, CALBIOCHEM) was added before observation. Imaging was carried out for comparing the intracellular accumulation of DOX and flutax-2 with a Fluorescence Microscopy (Leica DM2500, Leica, Germany).
Cells were detached, re-suspended in 500 μl of PBS after washed twice with cold PBS, and analyzed by flow cytometry (BD FACS Aria, BD Biosciences, San Jose, Calif.). Excitation and emission wavelengths (nm) used for DOX and flutax-2 were as follows: 480 to 585; and 496 to 524. Quinidine (QND, 20 μM), a known ABCB1 inhibitor, was used as a positive control.

in vitro [10] = settings: human, A2780/T cells
Experimental: as §3

A2780/T cells [11] = experiment: Intracellular accumulation of DOX and Flutax-2 in A2780/T; assay type: cell-based, human; settings: 8 h, 7.53 μM tangeretin or 20 μM QND
Experimental: as §2, with “cells” for “A2780 or A2780/T cells”, “Germany). […] Cells were detached, re-suspended in 500 μl of PBS after washed twice with cold PBS, and analyzed by flow cytometry (BD FACS Aria, BD Biosciences, San Jose, Calif.). Excitation and emission wavelengths (nm) used for DOX and flutax-2 were as follows: 480 to 585; and 496 to 524.” for “Germany).”

[12] = biological target: P-gp (ABCB1 transporter) in Caco-2 cells (Homo sapiens, UniProt P08183)
Chain of P-gp (ABCB1 transporter) in Caco-2 cells (P08183 whole entry): as above

in vitro [13] = settings: human, A2780 cells
[14] = system: MDR1 mRNA / ABCB1 protein in A2780/T cells; experiment: RT-PCR and Western blot of ABCB1 expression; assay type: cell-based, human; settings: tangeretin 0.83-7.53 μM, 48 hours
Experimental: RT-PCR was performed to evaluate MDR1 mRNA expression. mRNA from cell lysates were purified by binding to poly(dT) magnetic beads (Life technologies) and reverse transcribed by using SuperScript II (Life technologies). Standard quantitative RT-PCR was performed in duplicates at least two to three times by using SYBR Green (Molecular Probes) protocols on the ViiA™ 7 Real-Time PCR System (Life technologies). The primer sequences: 5′-[…]-3′ (SEQ ID […] NO:1) and 3′-[…]-5′ (SEQ ID NO:2) for MDR1, and 5′-[…]-3′ (SEQ ID NO:3) and 3′-[…]-[…]-5′ (SEQ ID NO:4) for control gene eukaryotic translation initiation factor (TIF). RT-PCR data was normalized by measuring average cycle threshold (Ct) ratios between candidate genes and control gene TIF.
The total cellular samples were harvested and rinsed twice with ice-cold PBS buffer. Cell extracts were lysed in RIPA buffer (50 mM Tris (pH 7.4), 150 mM NaCl, 1% Triton X-100, 1% sodium deoxycholate, 0.1% SDS, sodium orthovanadate, sodium fluoride and EDTA) containing protease inhibitor cocktails (Roche Life Science, USA). Protein concentration was determined using the BCA protein assay kit. Equal amounts of cell lysates were resolved by SDS-PAGE and subsequently electrophoretically transferred onto PVDF membranes (Millipore, Darmstadt, Germany). […]

[15] = 0.94 μM PTX with 7.53 μM tangeretin
[16] = 0.94 μM PTX, absence of tangeretin

CC(=O)O[C@H]1C(=O)[C@@]2(C)[C@H]([C@H](OC(=O)c3ccccc3)[C@]3(O)C[C@H](OC(=O)[C@H](O)[C@@H](NC(=O)c4ccccc4)c4ccccc4)C(C)=C1C3(C)C)[C@]1(OC(C)=O)CO[C@@H]1C[C@@H]2O [Paclitaxel, paclitaxel]
G1 phase cells (A2780/T cells [1]; [15]): 13.87% | G2 phase cells (A2780/T cells [1]; [15]): 72.37% | G1 phase cells (A2780/T cells [1]; [16]): 68.30% | G2 phase cells (A2780/T cells [1]; [16]): 18.87% | fold reversal (A549/T cells; A549/T, +0.84 μM TG): 2.67 | fold reversal (A549/T cells; A549/T, +2.51 μM TG): 9.52 | fold reversal (A549/T cells; A549/T, +5.21 μM TG): 9.52 | fold reversal (A549/T cells; A549/T, +7.53 μM TG): 80.05 | fold reversal (A549/T cells; A549/T, drug alone): 1.00 | IC50 (A549/T cells; A549, 48 h, A549/T, 48 h, drug alone): 2.53 ± 0.41 µM | IC50 (A549/T cells; A549, A549/T, +0.84 μM TG): 1.03 ± 0.33 µM | IC50 (A549/T cells; A549, A549/T, +5.21 μM TG): 0.27 ± 0.02 µM | IC50 (A549/T cells; A549, A549/T, +7.53 μM TG): 0.03 ± 0.01 µM | G1 phase content (A2780 cells [2]; 24 hours): 30.95% | G2-M content (A2780 cells [2]; 24 hours): 52.63% | G1 phase content (A2780 cells [2]; 48 hours): 14.13% | G2-M content (A2780 cells [2]; 48 hours): 62.33% | G1 phase content (A2780 cells [2]; 72 hours): 13.07% | G2-M content (A2780 cells [2]; 72 hours): 74.20% | accumulation of p53 (p53; PTX in combination with tangeretin): accumulation of p53 | mean IC50 in A2780/T greater than that of A2780 (degree of resistance) (A2780/T cells [3]; A2780/T versus parental A2780): 501 fold | fold reversal (A2780/T cells [3]; +0.84 μM TG): 1.59 | fold reversal (A2780/T cells [3]; +5.21 μM TG): 5.66 | fold reversal (A2780/T cells [3]; +7.53 μM TG): 18.88 | fold reversal (A2780/T cells [3]; drug alone): 1.00 | IC50 (A2780/T cells [3]; 48 h, drug alone): 2.51 µM | IC50 (A2780/T cells [3]; +0.84 μM TG): 1.58 ± 0.04 µM | IC50 (A2780/T cells [3]; +5.21 μM TG): 0.45 ± 0.07 µM | IC50 (A2780/T cells [3]; +7.53 μM TG): 0.14 ± 0.02 µM | EC50 (A2780/T cells [4]; CalcuSyn simulation, alone or in combination, read-out: Dose PTX at Fa 0.5 (ED50)): 3.61 µM | decrease for the ED50 dose of PTX (A2780/T cells [4]; combination with tangeretin versus PTX alone): 18 fold | apoptosis induction, single treatment (A2780/T cells [5]): did not show apoptosis induction

COc1ccc(-c2cc(=O)c3c(OC)c(OC)c(OC)c(OC)c3o2)cc1 [Tangeretin, 5,6,7,8,4′-pentamethoxyflavone]
effect on the cell cycle (A2780/T cells [1]; tangeretin 7.53 μM alone): no effect | Cmax [6]: 1000 to 5000 nM | IC50 ([7]; 200 μM verapamil, read-out: IC50 for inhibiting verapamil-stimulated P-gp ATPase activity): 7.87 µM | EC50 ([7]; recombinant human ABCB1 membranes, 37° C., 40 min, read-out: EC50 for stimulating P-gp ATPase activity): 11.6 µM | maximal stimulation of ATPase activity ([7]; relative to the basal activity): 3 fold | Cmax [8]: 1000 to 5000 nM | p53 expression (p53; tangeretin at various concentrations, 48 hours, Western blot): unregulated the p53 expression | cells survived (A2780/T cells [3]; tangeretin at 7.53 μM, all cell lines): more than 90% | EC50 (A2780/T cells [4]; read-out: Dose tangeretin at Fa 0.5 (ED50), CalcuSyn simulation, alone or in combination): 67.5 µM | DOX and Flutax-2 levels (A2780 cells [9]): did not significantly alter; also recorded: no effect | IC50 (in vitro [10]): 36.4 µM | intracellular accumulations of DOX and Flutax-2 (A2780/T cells [11]): remarkably enhanced; also recorded: higher than that of untreated A2780/T | inhibitory effect on efflux compared with 20 μM QND [12]: more potent than that of QND | inhibitory effect on efflux compared with 20 μM QND ([12]; human, 2 h, 2.51 μM): stronger than that of 20 μM QND | IC50 (in vitro [13]): 35.6 µM | mRNA or protein level of ABCB1 [14]: did not influence | mRNA or protein level of ABCB1 ([14]; listed as tangeretin): did not alter | apoptosis induction, single treatment (A2780/T cells [5]): did not show apoptosis induction | apoptosis induced by 0.94 μM PTX (A2780/T cells [5]; with 0.83, 2.51 and 7.53 μM tangeretin, A2780/T): significantly increase apoptosis
